Test results: patent EP0727211A1, “Use of src SH2 specific compounds to treat a bone resorption disease” (SMITHKLINE BEECHAM CORPORATION, priority 1995, dated 1996)

Key:
[1] = target: T1, human SH-PTP2 SH2 domain (Homo sapiens, UniProt Q06124); assay: SH2 domain / pY peptide binding assay (ELISA-based, 96 well plate), SH-PTP2 SH2; settings: for Ki: Ki calculated from IC50 by the expanded equation, Table II; for IC50: cloned human SH2 domain fusion protein, 0.1 uM biotinylated pY peptide, Table I
T1 construct: SH2 domain of human SH-PTP2 (amino acids 1-106); made in house; host or cells: E. coli (pGEX-2T)
T1 sequence (Q06124 1-106): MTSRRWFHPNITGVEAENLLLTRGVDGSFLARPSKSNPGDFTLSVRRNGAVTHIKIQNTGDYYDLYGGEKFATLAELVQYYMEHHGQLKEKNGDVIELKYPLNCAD
Protocol: (§1) The inhibitory activity of compounds at the different human SH2 domains was determined in vitro using SH2 domains expressed as fusion proteins in E. coli. The SH2 domains used herein were the human forms of the src SH2 domain, Grb2 SH2 domain, lck SH2 domain, fyn SH2 domain, SH-PTP2 SH2 domain, p85 SH2 domain and hcp SH2 domain.
(§2) Fusion proteins having the structure GST-X-SH2 were prepared as described in the GST gene fusion kit system available from Pharmacia (New Jersey). GST is the tagging sequence glutathione s-transferase epitope (SEQ ID NO: 8) for fyn, Grb2 and SH-PTP2 and is the tagging sequence glutathione s-transferase epitope (SEQ ID NO: 9) for p85. SH2 refers to the SH2 domains of fyn, Grb2, p85 and SH-PTP2 which were expressed and purified using glutathione Sepharose 4B (Pharmacia) according to "Current Protocols in Molecular Biology", ed. FM Ausubel et al., pub. John Wiley and Sons, Inc., (1995), p 16.7.1. X is an appropriate linker, preferably of 6 to 21 base pairs, used to keep the SH2 construct in frame and complement cloning. As such, the sequence of X is not critical. One skilled in the art can readily construct the appropriate linker. The DNA sequence encoding each GST-X-SH2 fusion protein was designed such that the indicated restriction sites (BamH1 and EcoRI) flank the SH2 region. The vector used in the instant experiments was the E. coli expression vector pGEX-2T (Pharmacia) for fyn, Grb2 and SH-PTP2, and pGEX-3X (Pharmacia) for p85. Each of these vectors result in SH2 constructs having additional C-terminal amino acids as described below.
Human SH-PTP2 SH2 domain: The sequence encoding the SH2 domain of human SH-PTP2 (amino acids 1-106))(Bastien, L. et al., Biochem. Biophys. Res. Commun. 196, 124-133 (1993)) was cloned into the BamHI and EcoRI sites of the expression vector pGEX-2T. The SH2 domain including the additional C-terminal amino acids glutamine-phenylalanine-isoleucine-valine-threonine-aspartate (SEQ ID NO: 12) was cloned by PCR techniques known to those skilled in the art to yield the expressed fusion protein GST-X-SH-PTP2.
(§3) The binding assays for the SH2 domains and pY peptides were performed in an ELISA-based 96 well plate assay. In Millipore 96 well filter plates, hydrophilic Durapore® (pore size 0.65um Cat. No. MADVN6550), was added 2 ul (50% suspension) of Protein-G Sepharose (available from Pharmacia of N.J. Cat. No. 17-0618-01) and either 2 ul of 2 mg/ml of MAB178. (for gp120/SH2 domain fusion proteins src, lck and hcp) or 0.25 ul of anti-GST polyclonal antisera (available from Pharmacia of N.J.) (for GST/SH2 domain fusion proteins fyn, Grb2, p85 and SH-PTP2). 10 pmol of the subject SH2 domain fusion protein were added to their respective wells. The volume was brought to 100 ul with TBS-T (tris buffered saline plus 0.05% tween-20), incubated and shaken at room trmperature for 1 hr. then washed 1x with TBS-T (4°C). 90 ul of TBS-T were then added to each well. Specific pY biotinylated peptides were diluted to a concentration of 1.0 uM in TBS-T (these peptides can be obtained from Bachem Bioscience of Pennsylvania, Genosys Biotechnologies of Texas and California Peptide Research of California). 10 ul was aliquoted per well to yield a final concentration of 0.1 uM (approx, the Kd for each SH2 domain/peptide pair) and a final volume of 100 ul. The assay plates were incubated until equilibrium binding was attained (3 hr at 4°C with shaking). The assay plates were washed 2 X per well TBS-T (4°C), then 100 ul of SABC (Strepavidin biotinylated horseradish peroxidase complex, available from the Zymed corporation of California cat. no. 93-0043, 1 drop reagent A (streptavidin) and 1 drop of reagent B (AH-biotin conjugated-horseradish peroxidase) per 10 ml of TBS-T, incubated at 37°C for 30 minutes, then cooled to 4°C) was added per well, then incubated at 4°C for 30-60 minutes. The plates were then washed 4 X with TBS-T (4°C) (250 ul/well)/wash). […]

[2] = target: T2, human fyn SH2 domain (Homo sapiens, UniProt P06241); assay: SH2 domain / pY peptide binding assay (ELISA-based, 96 well plate), fyn SH2; settings: for Ki: Ki calculated from IC50 by the expanded equation, Table II; for IC50: cloned human SH2 domain fusion protein, 0.1 uM biotinylated pY peptide, Table I
T2 construct: SH2 domain of human fyn (amino acids 143-252); made in house; host or cells: E. coli (pGEX-2T)
T2 sequence (P06241 143-252): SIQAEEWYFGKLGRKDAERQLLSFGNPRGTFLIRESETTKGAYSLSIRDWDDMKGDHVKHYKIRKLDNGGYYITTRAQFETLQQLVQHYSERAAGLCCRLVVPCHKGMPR
Protocol: as §1, §2
The sequence encoding the SH2 domain of human fyn (amino acids 143-252) (Yamamoto, T. et al. Proc. Natl. Acad. Sci. USA 83, 5459-5463 (1986)) was cloned into the BamHI and EcoRI sites of the expression vector pGEX-2T. The SH2 domain including the additional C-terminal amino acids leucine-threonine-asparagine-serine-serine (SEQ ID NO: 10) was cloned by PCR techniques known to those skilled in the art to yield the expressed fusion protein GST-X-fyn.
as §3

Molecule | Ki [1] [µM] | IC50 [1] [µM] | Ki [2] [µM] | IC50 [2] [µM]
4-acetamido-benzamido-trans-4-methyl-cyclohexyl-N-1-(amino-R-2-(methoxy methyl)-pyrrolidine) carboxamide [Compound 8] | > 1000 | > 300 | > 1000 | > 300
Cc1nnc(SCC2=C(C(=O)O)N3C(=O)[C@@H](NC(=O)C(N)c4ccc(C(=O)O)cc4)[C@H]3SC2)s1 (stereo partly drawn) [Compound 1, 7-[D,L-α-Amino-α-(4-carboxyphenyl)acetamido]-3-[2-(5-methyl-1,3,4-thiadiazolyl)thiomethyl]Δ^3-cephem-4-carboxylic Acid] | > 1000 | > 300 | > 1000 | > 300
N[C@@H](Cc1cc(Br)c(Oc2ccc(O)c(Cc3ccc(O)nn3)c2)c(Br)c1)C(=O)O [Compound 2, L-3,5-Dibromo-3'-(6-oxo-3(1H)-pyridazinylmethyl)-thyronine] | > 1000 | > 300 | > 1000 | > 300
Cc1nc2sc3c(c2c2[nH][nH]c(=O)c12)CCC1(C3)OCCO1 [Compound 3, 8,8-Ethylenedioxy-2,3,7,8,9,10-hexahydro-4-methyl-1H-benzo[b]thieno[2,3-b]pyrazolo[3,4-d]pyridin-3-one] | > 1000 | > 300 | > 1000 | > 300
Cc1ccc(C(=O)c2ccc(C(=O)c3ccc(CC=O)cc3)cc2)cc1 [Compound 4, 4-[4-(4-Methylbenzoyl)benzoyl]phenylacetaldehyde] |  |  | > 1000 | > 300

The remaining lines, values ahead:

Ki [1] [µM] | IC50 [1] [µM] | Ki [2] [µM] | IC50 [2] [µM] | Molecule
> 1000 | > 300 | > 1000 | > 300 | Cc1nc2sc3c(c2c2c1c(=O)[nH]n2C)CCC1(C3)OCCO1 [Compound 5, 1,4-Dimethyl-8,8-ethylenedioxy-2,3,7,8,9,10-hexahydro-1H-benzo[b]thieno[2,3-b]pyrazolo[3,4-d]pyridin-3-one]
> 1000 | > 300 | > 1000 | > 300 | CCCCCCNC(=O)[C@H]1CC[C@H](CNC(=O)c2ccc([N+](=O)[O-])cc2)CC1 [Compound 7, 4-nitro-benzamido-trans-4-methyl-cyclohexyl-N-hexyl carboxamide]
> 1000 | > 300 | > 1000 | > 300 | CCCNC(=O)[C@H]1CC[C@H](CNC(=O)/C=C/c2ccc(C=O)cc2)CC1 [Compound 9, 4-formyl-E-cinnamido-trans-4-methyl-cyclohexyl-N-(propyl) carboxamide]
> 1000 | > 300 | > 1000 | > 300 | Cc1nc2sc3c(c2c2[nH][nH]c(=O)c12)CCCC3 [Compound 10, 2,3,7,8,9,10-Hexahydro-4-methyl-1H-benzo[b]thieno[2,3-b]pyrazolo[3,4-d]pyridin-3-one]
